PubChem BioAssay AID2060619 (Molecular Pharmacology Branch, DTP, NCI, 2025)
Several values for one entry are separate records, joined by “and”; a condition that tells them apart may be missing. Equal entries are not always repeated.

Test system: 323965-272-R-J2-PDC complex spheroid viability
Assay: Anticancer human tumor 323965-272-R-J2-PDC patient-derived pancreatic carcinoma cell line growth inhibition [CLK]
Details: for viability, T/C: stronger effect = lower value; active = viability on the fitted dose curve at most 10% of control; inactive = the rest
Source text: A high-throughput screen of multi-cell type tumor spheroids was designed to identify active combinations of […] and targeted small molecules. Complex spheroids include a stromal component modeled by human endothelial cells (HUVEC) and fibroblasts modeled by human mesenchymal stem cells (MSCs). The concentration ranges selected for each drug and investigational agent were based upon clinically achievable concentrations if the clinical Cmax of the agent was known.
Compounds. The drugs and investigational agents: cirtuvivint (SM08502; NSC835563), CC-671 (NSC850746), vemurafenib (NSC761431), tapotoclax (NSC804041), sotorasib (NSC818433), adagrasib (NSC831453), MRTX-1133 (NSC836407), BAY2416964 (NSC825713), copanlisib (NSC816437), inavolisib (NSC800729), abemaciclib (NSC768073), osimertinib (NSC779217), entinostat (NSC756642), eltanexor (KPT-8602, NSC794443), venetoclax (NSC766270), ceralasertib (NSC777638), bortezomib (NSC756655), olaparib (NSC753686), talazoparib (NSC767125), alisertib (NSC759677), peposertib (NSC802822), gemcitabine (NSC613327), 5-fluorouracil (NSC19893), SN-38 (NSC673596), oxaliplatin (NSC266046), paclitaxel (NSC125973), and doxorubicin (NSC123127), were obtained from the National Cancer Institute (NCI) Developmental Therapeutics Program Chemical Repository. The FDA-approved anticancer drug set is available from the Developmental Therapeutics Program at https://dtp.cancer.gov/organization/dscb/obtaining/available plates.htm. […] The stock solutions were prepared in dimethyl sulfoxide (DMSO, Sigma-Aldrich, St. Louis, MO, cat. D2650), except for the platinum complexes which were prepared in saline (Quality Biological, Gaithersburg, MD, cat. 114-055-101), at 800-fold the tested concentration and stored at -70 degrees C prior to their use. All drugs and investigational agents were tested over a range starting from a high concentration at or near the clinical Cmax and decreasing in half-log increments. If the clinical Cmax for an agent had not been determined, the highest concentration tested was 10 microM.
Cell Culture. All cells were maintained in an incubator at 37 degrees C and 5% CO2 with 95% humidity. The PDC lines were cultured according to standard operating procedures established by the NCI PDMR. Briefly, all PDCs were thawed and cultured in Matrigel-coated flasks prepared with a working solution of 1X Ham's F-12 nutrient mix, without supplementation (Invitrogen, Waltham, MA, cat. 11765054), 100 U/mL penicillin-streptomycin (Invitrogen, cat. 15140122), and 2.5% Matrigel (Corning Inc., Corning, NY, cat. 354248) for the first three passages. The 947758-054-R-J2-PDC line was cultured in 6B/Colon 1A media, which includes advanced DMEM/F-12 (Thermo Fisher Scientific, cat. 12634028), 10 mM HEPES (Thermo Fisher Scientific, cat. 15630080), 1X GlutaMAX supplement (Thermo Fisher Scientific, cat. 35050061), 0.1 mg/mL primocin (InvivoGen, cat. ant-pm-2), 10% defined fetal bovine serum, heat inactivated (HyClone Laboratories Inc., cat. SH30070.03HI), 1.25 mM N-Acetyl-L-cysteine (Sigma-Aldrich, cat. A9165), 10 mM nicotinamide (Sigma-Aldrich, cat. N0636), 1X B-27 supplement (Thermo Fisher Scientific, cat. 17504044), 1X N-2 supplement (Thermo Fisher Scientific, cat. 17502048), and 10 microM Y-27632 dihydrochloride (Tocris Bioscience, cat. 1254). The 876862-298-R-J1-PDC was cultured in 6E media, which includes all 6B/Colon 1A media components plus 50% L-WRN conditioned media (ATCC, cat. CRL-3276), 50 ng/mL recombinant human EGF recombinant protein (hEGF; Thermo Fisher Scientific, cat. PHG0311), 10 ng/mL recombinant human fibroblast growth factor 10 (hGFG-10; PeproTech, cat. 100-26), 1 ng/mL recombinant human fibroblast growth factor 2 (hFGF-2; PeproTech, cat. 100-18B), and 1 µM prostaglandin E2 (PGE2; Tocris, cat. 2296). The 227483-062-R1-J1-PDC line was cultured in Panc media, containing all 6E components except hFGF-2, with the addition of 500 nM SB-431542 (Selleckchem, cat. S1067) and 10 nM gastrin (Tocris, cat. 3006). […]

[1] = curve of first compound, second compound 0.0316 µM
[2] = curve of first compound, second compound 0.1 µM
[3] = curve of first compound, second compound 0.316 µM
[4] = curve of first compound, second compound 1 µM
[5] = curve of first compound, second compound 3.16 µM
[6] = curve of first compound, second compound 10 µM
[7] = second compound 0.0316 µM, first compound 0.0316 µM
[8] = second compound 0.0316 µM, first compound 0.1 µM
[9] = second compound 0.0316 µM, first compound 0.316 µM
[10] = second compound 0.0316 µM, first compound 1 µM
[11] = second compound 0.0316 µM, first compound 3.16 µM
[12] = second compound 0.0316 µM, first compound 10 µM
[13] = second compound 0.1 µM, first compound 0.0316 µM
[14] = second compound 0.1 µM, first compound 0.1 µM
[15] = second compound 0.1 µM, first compound 0.316 µM
[16] = second compound 0.1 µM, first compound 1 µM
[17] = second compound 0.1 µM, first compound 3.16 µM
[18] = second compound 0.1 µM, first compound 10 µM
[19] = second compound 0.316 µM, first compound 0.0316 µM
[20] = second compound 0.316 µM, first compound 0.1 µM
[21] = second compound 0.316 µM, first compound 0.316 µM
[22] = second compound 0.316 µM, first compound 1 µM
[23] = second compound 0.316 µM, first compound 3.16 µM
[24] = second compound 0.316 µM, first compound 10 µM
[25] = second compound 1 µM, first compound 0.0316 µM
[26] = second compound 1 µM, first compound 0.1 µM
[27] = second compound 1 µM, first compound 0.316 µM
[28] = second compound 1 µM, first compound 1 µM
[29] = second compound 1 µM, first compound 3.16 µM
[30] = second compound 1 µM, first compound 10 µM
[31] = second compound 3.16 µM, first compound 0.0316 µM
[32] = second compound 3.16 µM, first compound 0.1 µM
[33] = second compound 3.16 µM, first compound 0.316 µM
[34] = second compound 3.16 µM, first compound 1 µM
[35] = second compound 3.16 µM, first compound 3.16 µM
[36] = second compound 3.16 µM, first compound 10 µM
[37] = second compound 10 µM, first compound 0.0316 µM
[38] = second compound 10 µM, first compound 0.1 µM
[39] = second compound 10 µM, first compound 0.316 µM
[40] = second compound 10 µM, first compound 1 µM
[41] = second compound 10 µM, first compound 3.16 µM
[42] = second compound 10 µM, first compound 10 µM
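Also: spheroids exposed to agents for seven days before readout.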
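For viability, T/C in this document: percent of DMSO vehicle control wells so 100% = untreated growth.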

CC(=O)O[C@H]1C(=O)[C@@]2(C)[C@H]([C@H](OC(=O)c3ccccc3)[C@]3(O)C[C@H](OC(=O)[C@H](O)[C@@H](NC(=O)c4ccccc4)c4ccccc4)C(C)=C1C3(C)C)[C@]1(OC(C)=O)CO[C@@H]1C[C@@H]2O + CNC(=O)c1ccc(Nc2nc(OC3CCCC3)c3c(-c4ccc5nc(C)oc5c4)c[nH]c3n2)c(OC)c1
< 31.6 nM: IC50 [1] | IC50 [2] | IC50 [5] | IC50 [6]
> 10000 nM: IC50 [3] | IC50 [4]
inactive: viability, T/C [7] 32.8% | viability, T/C [8] 40.5% | viability, T/C [9] 34.4% | viability, T/C [10] 33.2% | viability, T/C [11] 33.1% | viability, T/C [12] 36.9% | viability, T/C [13] 45.3% | viability, T/C [14] 42.7% | viability, T/C [15] 41.9% | viability, T/C [16] 37.9% | viability, T/C [17] 38.5% | viability, T/C [18] 38.5% | viability, T/C [19] 66.5% | viability, T/C [20] 68.7% | viability, T/C [21] 62.7% | viability, T/C [22] 67.7% | viability, T/C [23] 68.5% | viability, T/C [24] 76.1% | viability, T/C [25] 55.4% | viability, T/C [26] 60.1% | viability, T/C [27] 67.5% | viability, T/C [28] 63.2% | viability, T/C [29] 75.8% | viability, T/C [30] 74.5% | viability, T/C [31] 48.6% | viability, T/C [32] 53.5% | viability, T/C [33] 49.8% | viability, T/C [34] 56.1% | viability, T/C [35] 65.3% | viability, T/C [36] 60.4% | viability, T/C [37] 44.6% | viability, T/C [38] 49% | viability, T/C [39] 49.2% | viability, T/C [40] 55.8% | viability, T/C [41] 68.7% | viability, T/C [42] 60.4%

CC(Nc1ccc2c(c1)OCCn1cc(N3C(=O)OCC3C(F)F)nc1-2)C(N)=O (configuration not stated)
> 10000 nM: IC50 (curve of compound)
inactive: viability, T/C (compound 0.0316 µM) 94.2% and 96.6% | viability, T/C (compound 0.1 µM) 89.2% and 83.2% | viability, T/C (compound 0.316 µM) 76.2% and 66.7% | viability, T/C (compound 1 µM) 67.8% and 65.5% | viability, T/C (compound 3.16 µM) 63.1% and 68.3% | viability, T/C (compound 10 µM) 50.9% and 47.6%

CCCS(=O)(=O)Nc1ccc(F)c(C(=O)c2c[nH]c3ncc(-c4ccc(Cl)cc4)cc23)c1F
inactive: viability, T/C (compound 0.0316 µM) 105% and 112% | viability, T/C (compound 0.1 µM) 105% and 113% | viability, T/C (compound 0.316 µM) 112% and 123% | viability, T/C (compound 1 µM) 110% and 105% | viability, T/C (compound 3.16 µM) 116% and 99% | viability, T/C (compound 10 µM) 84.8% and 79.7%
> 10000 nM: IC50 (curve of compound)

CC1COCCN1c1cc(C2(S(C)(=N)=O)CC2)nc(-c2ccnc3[nH]ccc23)n1 (configuration not stated)
2070 nM and 1960 nM: IC50 (curve of compound)
inactive: viability, T/C (compound 0.0316 µM) 103% and 106% | viability, T/C (compound 0.1 µM) 99.9% and 91.9% | viability, T/C (compound 0.316 µM) 90.5% and 90.1% | viability, T/C (compound 1 µM) 70.1% and 62.4% | viability, T/C (compound 3.16 µM) 37.1% and 40.2% | viability, T/C (compound 10 µM) 31.6% and 31%

Nc1ccccc1NC(=O)c1ccc(CNC(=O)OCc2cccnc2)cc1
9390 nM and 6890 nM: IC50 (curve of compound)
inactive: viability, T/C (compound 0.0316 µM) 115% and 110% | viability, T/C (compound 0.1 µM) 103% and 104% | viability, T/C (compound 0.316 µM) 101% and 95.5% | viability, T/C (compound 1 µM) 89.1% and 86.3% | viability, T/C (compound 3.16 µM) 72.6% and 61.8% | viability, T/C (compound 10 µM) 47.9% and 43.9%

CCCS(=O)(=O)Nc1ccc(F)c(C(=O)c2c[nH]c3ncc(-c4ccc(Cl)cc4)cc23)c1F + CN1CCN(c2cc(C(=O)Nc3cc4cc(-c5cnn(C)c5)ccc4cn3)ccn2)CC1
active: viability, T/C [25] 4.7% | viability, T/C [26] 3.95% | viability, T/C [27] 3.77% | viability, T/C [28] 4.38% | viability, T/C [29] 4.19% | viability, T/C [30] 6.54% | viability, T/C [31] 4.04% | viability, T/C [32] 4.11% | viability, T/C [33] 4.16% | viability, T/C [34] 4.42% | viability, T/C [35] 5.61% | viability, T/C [36] 6.54% | viability, T/C [37] 4.15% | viability, T/C [38] 4.79% | viability, T/C [39] 4.2% | viability, T/C [40] 4.29% | viability, T/C [41] 4.87% | viability, T/C [42] 5.79%
< 31.6 nM: IC50 [3] | IC50 [4] | IC50 [5] | IC50 [6]
inactive: viability, T/C [7] 97.9% | viability, T/C [8] 102% | viability, T/C [9] 102% | viability, T/C [10] 111% | viability, T/C [11] 101% | viability, T/C [12] 78.7% | viability, T/C [13] 68.4% | viability, T/C [14] 68.1% | viability, T/C [15] 80.1% | viability, T/C [16] 83% | viability, T/C [17] 84.7% | viability, T/C [18] 66.5% | viability, T/C [19] 28.1% | viability, T/C [20] 26.3% | viability, T/C [21] 30.5% | viability, T/C [22] 34.7% | viability, T/C [23] 32.3% | viability, T/C [24] 35%
> 10000 nM: IC50 [1] | IC50 [2]
